The test system of one test is keratinocyte cultures. Conditions: cited from earlier work.
For test [1], the target named is T1, hyaluronidase (HYAL, Sigma type IV-S, H3884) (Bos taurus, UniProt Q2YDK3).
T1 construct: hyaluronidase (HYAL, Sigma type IV-S, H3884)
T1 sequence (Q2YDK3 1-553): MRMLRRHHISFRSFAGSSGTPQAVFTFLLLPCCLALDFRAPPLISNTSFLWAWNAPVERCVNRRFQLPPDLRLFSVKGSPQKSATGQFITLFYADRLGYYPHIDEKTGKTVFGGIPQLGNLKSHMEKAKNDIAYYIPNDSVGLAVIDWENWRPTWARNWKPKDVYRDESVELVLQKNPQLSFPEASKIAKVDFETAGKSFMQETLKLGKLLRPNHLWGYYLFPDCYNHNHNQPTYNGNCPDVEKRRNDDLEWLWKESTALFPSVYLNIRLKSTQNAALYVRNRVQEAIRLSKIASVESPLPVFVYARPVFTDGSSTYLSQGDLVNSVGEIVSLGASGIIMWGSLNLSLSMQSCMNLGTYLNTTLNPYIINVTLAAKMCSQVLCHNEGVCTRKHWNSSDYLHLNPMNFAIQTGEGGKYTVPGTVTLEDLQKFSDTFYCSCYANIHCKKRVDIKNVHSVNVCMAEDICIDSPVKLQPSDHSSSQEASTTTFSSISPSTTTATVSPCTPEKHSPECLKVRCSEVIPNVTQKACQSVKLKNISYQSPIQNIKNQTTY
The experiment in a line: Action on the activity of hyaluronidase (remaining hyaluronic acid determined photometrically). The format is biochemical. The conditions noted are these: for Hyaluronidase activity: control (no LU) = 100. The protocol:
5,7-Dihydroxy-2-methylchromen-4-one in phosphate buffer (0.1 M) is pre-incubated with hyaluronidase (HYAL, Sigma type IV-S, H3884; 1 mg/l in phosphate buffer (0.1 M)). Hyaluronic acid (HA, Sigma H-1876; 1.2 mg/ml) is subsequently added, and the mixture is incubated at 37° C. for 1 hour. The remaining hyaluronic acid (HA) is subsequently precipitated using serum albumen (BSA, Sigma A7888) and determined photometrically.

Test [2] addresses T2, elastase (from human leukocytes) (Homo sapiens, UniProt P08246).
T2 construct: elastase (from human leukocytes; Sigma E8140; 100 mU/well); purchased Sigma E8140; host or cells: human leukocytes
T2 sequence (P08246 30-267): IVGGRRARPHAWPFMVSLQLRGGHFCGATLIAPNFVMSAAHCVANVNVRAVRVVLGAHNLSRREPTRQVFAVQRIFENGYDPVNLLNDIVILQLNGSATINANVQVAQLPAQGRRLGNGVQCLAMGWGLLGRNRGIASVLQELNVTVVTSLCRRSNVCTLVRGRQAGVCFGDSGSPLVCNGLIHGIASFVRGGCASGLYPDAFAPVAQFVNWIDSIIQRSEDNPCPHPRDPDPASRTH
The experiment in a line: Action on the activity of leukocyte elastase (fluorescence, elastin substrate). It is filed as biochemical. The protocol:
5,7-Dihydroxy-2-methylchromen-4-one in TRIS buffer (500 mM) is incubated for 10 minutes on ice with elastase (from human leukocytes; Sigma E8140; 100 mU/well). 5 μg/well of elastin are subsequently added, and the plates are incubated at 37° C. for 2 hours. The fluorescence is determined using a Spectromax Gemini spectrometer (Molecular Devices) at λex=485 nm and λem=538 nm.

The test system of test [3] is PGE2 release from human keratinocytes (cell line NCTC R13). The test can be described thus: Antiinflammatory properties (PGE2 assay): PMA-induced PGE2 release, ELISA. It is filed as cell-based. Conditions: for PGE2: PMA-stimulated, 24 h; for PGE2 release % compared with control: control (only PMA) = 100. The protocol:
Human keratinocytes of the cell line NCTC R13 are pre-cultivated for 24 hours at 37° C. in a 5% CO2 atmosphere with DMEM culture medium (Life Technologies). The cells are treated with LU for 24 hours, and the culture medium is then removed. A fresh culture medium containing the inflammation-triggering active ingredient phorbol myristate acetate (PMA; […]) and LU is added. After incubation for 24 hours, the culture medium is collected and analysed. By means of an ELISA DE0100 kit (R&D Systems), the release is used in order to investigate the release of the inflammation marker prostaglandin E2 (PGE2) (Table).

For test [4] the following is noted: over the entire pH range; cited from earlier work.

Regarding `O=C1CCOc2ccccc21` [Example 4-chromanone, 4-chromanone], in the test with keratinocyte cultures, the cell differentiation entry is listed as “promotes cell differentiation” and the lipid production entry was “stimulates lipid production”.

With `Cc1cc(=O)c2c(O)cc(O)cc2o1` [LU, 5,7-dihydroxy-2-methylchromen-4-one], in test [1] (3.125 mM LU), the inhibition at 3125 µM is 9% and the Hyaluronidase activity is recorded as 91. In test [1] (6.25 mM LU), testing at 6250 µM gave an inhibition of 19% and the Hyaluronidase activity is 81. Besides, in test [1] (12.5 mM LU), testing at 12500 µM gave an inhibition of 37% and the Hyaluronidase activity was determined as 63. In test [1] (25 mM LU), this compound returned an inhibition at 25000 µM of 63% and a Hyaluronidase activity of 37. Further, in test [1] (in the doses investigated (3.125-25 mM)), the “Inhibition of hyaluronidase activity (in words)” value is reported as “clear inhibition of hyaluronidase activity”. Also, in test [2] (40 μM LU), the “% quenching” value is on record as 0%, the Fluorescence intensity worked out at 2195.9 and the inhibition at 40 µM worked out at 10%. In test [2] (40 μM LU, neg. control = 100, read-out: Elastase activity % compared with control), the remaining activity at 40 µM is 90%. Also, in test [2] (200 μM LU), the “% quenching” value was found to be 19%, the Fluorescence intensity worked out at 1096.4 and the inhibition at 200 µM stood at 45%. Also, the remaining activity at 200 µM in test [2] (200 μM LU, neg. control = 100, read-out: Elastase activity % compared with control) came to 45%. Further, the “Inhibition of the elastase activity (in words)” value in test [2] (doses of 200 μM and 40 μM) was “clear inhibition of the elastase activity”. Further, in test [3] (0.008 mM LU), the “PGE2” value came to 340.62 ng/mL and the “PGE2 release % compared with control” value is on record as 113%. Also, in test [3] (0.04 mM LU), the “PGE2” value was determined as 226.39 ng/mL and the “PGE2 release % compared with control” value turned out to be 75%. Moreover, in test [3] (0.2 mM LU), the “PGE2” value is 6.31 ng/mL and the “PGE2 release % compared with control” value came to 2%. In addition, the “PGE2 release on exposure to PMA (in words)” value in test [3] (doses of 0.2 mM and 0.04 mM) is “clear reduction in PGE2 release”.

On to `O=c1c(O)c(-c2ccc(O)c(O)c2)oc2cc(O)cc(O)c12` [Quercetin, 3,3′,4′,5,7-pentahydroxyflavone], for which, in test [4], the antioxidant activity entry is “greatest activity amongst the structures investigated”.
